Measured values from ChEMBL document CHEMBL1149823, “Identification of genotype-correlated sensitivity to selective kinase inhibitors by using high-throughput tumor cell line profiling” (Proc Natl Acad Sci U S A, 2007).
Values belong to the compound of their own block, whether it stands above or below them.

Columns and labels:
[1] = target: Hepatocyte growth factor receptor (Homo sapiens, UniProt P08581); assay: Inhibition of Met by cellular assay
[2] = target: Non-receptor tyrosine-protein kinase TYK2 (Homo sapiens, UniProt P29597); assay: Inhibition of Tyk2 by cellular assay
[3] = target: Tyrosine-protein kinase ZAP-70 (Homo sapiens, UniProt P43403); assay: Inhibition of ZAP70 by cellular assay
Ephrin type-A receptor 3 = Ephrin type-A receptor 3 (Homo sapiens, UniProt P29320); assay: Inhibition of EphA3 by cellular assay
Sequence of Ephrin type-A receptor 3 (P29320 whole entry): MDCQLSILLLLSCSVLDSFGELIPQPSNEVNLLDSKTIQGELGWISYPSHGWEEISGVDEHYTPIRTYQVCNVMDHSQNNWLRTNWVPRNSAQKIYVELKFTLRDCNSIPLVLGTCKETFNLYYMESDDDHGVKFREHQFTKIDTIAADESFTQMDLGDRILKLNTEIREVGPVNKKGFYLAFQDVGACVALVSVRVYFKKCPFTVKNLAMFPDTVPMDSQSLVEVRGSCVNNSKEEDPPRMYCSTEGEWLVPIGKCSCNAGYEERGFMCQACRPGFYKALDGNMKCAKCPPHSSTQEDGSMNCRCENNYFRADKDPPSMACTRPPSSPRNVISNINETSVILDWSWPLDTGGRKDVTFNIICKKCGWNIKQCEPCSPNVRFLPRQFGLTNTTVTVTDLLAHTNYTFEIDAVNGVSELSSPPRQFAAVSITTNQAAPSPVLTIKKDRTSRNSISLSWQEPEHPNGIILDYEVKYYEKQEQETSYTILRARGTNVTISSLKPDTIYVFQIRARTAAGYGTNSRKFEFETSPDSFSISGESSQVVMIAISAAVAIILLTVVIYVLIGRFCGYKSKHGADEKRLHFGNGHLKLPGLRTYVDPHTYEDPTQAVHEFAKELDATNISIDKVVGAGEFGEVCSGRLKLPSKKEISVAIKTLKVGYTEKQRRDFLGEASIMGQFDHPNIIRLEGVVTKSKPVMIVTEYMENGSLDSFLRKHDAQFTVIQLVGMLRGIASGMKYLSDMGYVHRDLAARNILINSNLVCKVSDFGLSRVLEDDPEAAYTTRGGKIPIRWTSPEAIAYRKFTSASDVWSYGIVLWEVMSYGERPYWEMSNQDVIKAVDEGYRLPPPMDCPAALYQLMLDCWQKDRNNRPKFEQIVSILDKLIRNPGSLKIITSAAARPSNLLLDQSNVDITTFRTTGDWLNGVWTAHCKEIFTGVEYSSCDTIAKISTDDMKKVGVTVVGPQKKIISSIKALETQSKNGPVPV

Ephrin type-B receptor 4 = Ephrin type-B receptor 4 (Homo sapiens, UniProt P54760); assay: Inhibition of EphB4 by cellular assay
[4] = target: T1, Vascular endothelial growth factor receptor 2 (Homo sapiens, UniProt P35968)
T1 sequence (P35968 whole entry): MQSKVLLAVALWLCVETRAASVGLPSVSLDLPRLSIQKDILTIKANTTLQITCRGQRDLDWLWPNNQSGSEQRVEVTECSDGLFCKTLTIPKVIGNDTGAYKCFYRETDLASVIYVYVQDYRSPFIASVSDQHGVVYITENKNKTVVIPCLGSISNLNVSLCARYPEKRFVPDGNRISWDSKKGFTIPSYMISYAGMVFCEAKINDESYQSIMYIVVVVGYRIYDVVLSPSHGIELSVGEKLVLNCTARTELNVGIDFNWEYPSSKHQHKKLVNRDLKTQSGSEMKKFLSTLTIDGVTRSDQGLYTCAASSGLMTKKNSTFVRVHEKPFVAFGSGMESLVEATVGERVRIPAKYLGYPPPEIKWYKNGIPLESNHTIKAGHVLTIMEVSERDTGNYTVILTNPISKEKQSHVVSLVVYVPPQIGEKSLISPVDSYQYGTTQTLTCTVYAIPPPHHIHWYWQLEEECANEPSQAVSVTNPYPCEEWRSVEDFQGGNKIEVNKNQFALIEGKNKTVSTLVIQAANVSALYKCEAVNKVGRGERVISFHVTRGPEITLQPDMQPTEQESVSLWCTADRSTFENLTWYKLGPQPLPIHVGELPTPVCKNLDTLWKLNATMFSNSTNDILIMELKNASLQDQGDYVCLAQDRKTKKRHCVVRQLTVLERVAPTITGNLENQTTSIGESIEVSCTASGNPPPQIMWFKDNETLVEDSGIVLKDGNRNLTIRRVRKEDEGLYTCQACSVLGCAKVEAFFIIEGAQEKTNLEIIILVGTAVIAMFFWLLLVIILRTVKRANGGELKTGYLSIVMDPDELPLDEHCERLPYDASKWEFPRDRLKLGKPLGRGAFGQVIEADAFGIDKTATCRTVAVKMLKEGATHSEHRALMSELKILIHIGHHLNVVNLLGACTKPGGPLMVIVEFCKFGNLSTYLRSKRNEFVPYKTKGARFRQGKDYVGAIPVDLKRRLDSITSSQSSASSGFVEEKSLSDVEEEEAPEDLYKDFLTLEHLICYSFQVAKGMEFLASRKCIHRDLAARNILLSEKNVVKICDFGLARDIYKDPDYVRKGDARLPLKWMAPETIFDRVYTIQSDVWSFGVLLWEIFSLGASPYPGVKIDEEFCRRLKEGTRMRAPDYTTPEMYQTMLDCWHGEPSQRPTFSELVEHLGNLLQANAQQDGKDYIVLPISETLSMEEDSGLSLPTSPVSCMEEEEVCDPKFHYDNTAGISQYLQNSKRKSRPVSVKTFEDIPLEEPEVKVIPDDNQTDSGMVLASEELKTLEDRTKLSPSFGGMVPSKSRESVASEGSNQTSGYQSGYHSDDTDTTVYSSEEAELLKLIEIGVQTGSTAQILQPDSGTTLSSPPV
Description: Inhibition of KDR by cellular assay

[5] = target: Proto-oncogene tyrosine-protein kinase Src (Homo sapiens, UniProt P12931); assay: Inhibition of Src by cellular assay; format: functional
[6] = target: Fibroblast growth factor receptor 1 (Homo sapiens, UniProt P11362)
Description: Inhibition of FGFR1 by cellular assay

[7] = target: Vascular endothelial growth factor receptor 1 (Homo sapiens, UniProt P17948)
Sequence of Vascular endothelial growth factor receptor 1 (P17948 whole entry): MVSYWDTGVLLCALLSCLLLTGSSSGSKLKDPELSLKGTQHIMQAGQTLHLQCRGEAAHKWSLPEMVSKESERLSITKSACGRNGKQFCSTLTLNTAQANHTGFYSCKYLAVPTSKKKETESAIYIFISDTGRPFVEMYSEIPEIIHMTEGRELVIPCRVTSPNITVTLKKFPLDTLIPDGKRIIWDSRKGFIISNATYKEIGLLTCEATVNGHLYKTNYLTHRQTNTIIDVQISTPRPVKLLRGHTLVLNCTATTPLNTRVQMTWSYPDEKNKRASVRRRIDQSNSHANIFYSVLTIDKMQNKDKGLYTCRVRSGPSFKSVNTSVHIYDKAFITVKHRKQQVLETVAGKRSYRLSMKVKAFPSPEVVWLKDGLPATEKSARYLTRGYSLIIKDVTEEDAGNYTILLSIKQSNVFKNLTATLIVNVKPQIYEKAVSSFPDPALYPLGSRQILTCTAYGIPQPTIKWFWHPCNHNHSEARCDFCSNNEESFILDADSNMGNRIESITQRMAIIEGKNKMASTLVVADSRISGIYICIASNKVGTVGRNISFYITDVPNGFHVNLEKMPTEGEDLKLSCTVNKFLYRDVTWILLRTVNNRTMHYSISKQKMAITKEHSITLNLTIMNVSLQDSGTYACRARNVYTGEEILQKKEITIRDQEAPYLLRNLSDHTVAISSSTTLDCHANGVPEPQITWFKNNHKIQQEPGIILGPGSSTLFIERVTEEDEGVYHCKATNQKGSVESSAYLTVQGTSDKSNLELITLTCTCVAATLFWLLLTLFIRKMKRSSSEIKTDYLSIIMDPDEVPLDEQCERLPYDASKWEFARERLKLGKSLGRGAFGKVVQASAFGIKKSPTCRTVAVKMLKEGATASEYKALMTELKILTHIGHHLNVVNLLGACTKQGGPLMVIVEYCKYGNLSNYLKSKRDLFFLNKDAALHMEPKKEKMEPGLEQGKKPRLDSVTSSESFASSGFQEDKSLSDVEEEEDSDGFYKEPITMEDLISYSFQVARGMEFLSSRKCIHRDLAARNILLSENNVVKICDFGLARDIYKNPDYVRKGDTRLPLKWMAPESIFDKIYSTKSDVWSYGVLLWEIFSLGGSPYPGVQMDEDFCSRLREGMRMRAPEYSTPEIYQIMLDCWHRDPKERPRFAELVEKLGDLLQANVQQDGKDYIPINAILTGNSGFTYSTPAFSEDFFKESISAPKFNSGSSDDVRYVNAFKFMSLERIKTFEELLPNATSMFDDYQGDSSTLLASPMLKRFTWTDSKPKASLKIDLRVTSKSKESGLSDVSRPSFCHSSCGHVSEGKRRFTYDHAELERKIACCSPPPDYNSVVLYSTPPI
Description: Inhibition of Flt1 by cellular assay

[8] = target: Mast/stem cell growth factor receptor Kit (Homo sapiens, UniProt P10721)
Sequence of Mast/stem cell growth factor receptor Kit (P10721 whole entry): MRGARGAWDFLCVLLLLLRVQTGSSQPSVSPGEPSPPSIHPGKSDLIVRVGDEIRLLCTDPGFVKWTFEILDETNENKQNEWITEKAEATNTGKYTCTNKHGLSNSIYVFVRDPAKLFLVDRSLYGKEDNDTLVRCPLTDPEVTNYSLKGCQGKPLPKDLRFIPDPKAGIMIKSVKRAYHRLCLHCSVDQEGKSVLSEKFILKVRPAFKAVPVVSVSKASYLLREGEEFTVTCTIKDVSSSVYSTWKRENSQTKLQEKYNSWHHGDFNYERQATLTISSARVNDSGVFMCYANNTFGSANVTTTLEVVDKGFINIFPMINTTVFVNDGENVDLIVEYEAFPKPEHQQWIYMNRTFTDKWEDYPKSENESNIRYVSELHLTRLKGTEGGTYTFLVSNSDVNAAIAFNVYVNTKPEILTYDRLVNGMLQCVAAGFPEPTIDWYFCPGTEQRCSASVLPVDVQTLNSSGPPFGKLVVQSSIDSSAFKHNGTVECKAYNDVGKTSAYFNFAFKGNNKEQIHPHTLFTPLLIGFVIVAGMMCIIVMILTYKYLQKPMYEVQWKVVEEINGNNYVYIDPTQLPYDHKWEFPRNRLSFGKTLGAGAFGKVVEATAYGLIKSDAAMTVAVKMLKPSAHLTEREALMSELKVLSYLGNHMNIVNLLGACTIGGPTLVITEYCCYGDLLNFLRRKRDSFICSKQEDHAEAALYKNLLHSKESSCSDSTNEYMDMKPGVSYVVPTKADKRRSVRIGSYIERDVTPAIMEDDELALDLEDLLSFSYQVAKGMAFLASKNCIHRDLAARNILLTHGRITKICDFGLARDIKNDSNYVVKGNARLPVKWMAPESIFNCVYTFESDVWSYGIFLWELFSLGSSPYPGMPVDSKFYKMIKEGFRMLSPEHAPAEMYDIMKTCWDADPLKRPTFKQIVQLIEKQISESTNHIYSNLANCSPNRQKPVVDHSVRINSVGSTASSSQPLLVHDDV
Description: Inhibition of c-Kit by cellular assay

[9] = target: Tyrosine-protein kinase Lck (Homo sapiens, UniProt P06239)
Description: Inhibition of Lck by cellular assay

[10] = target: Platelet-derived growth factor receptor alpha (Homo sapiens, UniProt P16234)
Description: Inhibition of PDGFRalpha by cellular assay

[11] = target: Platelet-derived growth factor receptor beta (Homo sapiens, UniProt P09619)
Description: Inhibition of PDGFRbeta by cellular assay

[12] = target: Proto-oncogene tyrosine-protein kinase receptor Ret (Homo sapiens, UniProt P07949)
Description: Inhibition of Ret by cellular assay

Angiopoietin-1 receptor = Angiopoietin-1 receptor (Homo sapiens, UniProt Q02763)
Description: Inhibition of Tie2 by cellular assay

[13] = target: Fibroblast growth factor receptor 3 (Homo sapiens, UniProt P22607)
[14] = target: Receptor-type tyrosine-protein kinase FLT3 (Homo sapiens, UniProt P36888)
Description: Inhibition of FLT3 by cellular assay

[15] = target: ALK tyrosine kinase receptor (Homo sapiens, UniProt Q9UM73)
Description: Inhibition of ALK by cellular assay

[16] = target: Macrophage-stimulating protein receptor (Homo sapiens, UniProt Q04912)
Insulin receptor = Insulin receptor (Homo sapiens, UniProt P06213)
Description: Inhibition of InsR by cellular assay

[17] = target: High affinity nerve growth factor receptor (Homo sapiens, UniProt P04629)
IMR-90 = assay: Cytotoxicity against human IMR90 cells assessed as fraction of viable cells after 72 hrs relative to control; format: functional
[18] = Cytotoxicity against human G-292 Clone A141B1 cells assessed as fraction of viable cells after 72 hrs relative to control; format: functional
SNU1 = assay: Cytotoxicity against human SNU1 cells assessed as fraction of viable cells after 72 hrs relative to control; format: functional
SNU-5 = assay: Cytotoxicity against human SNU5 cells assessed as fraction of viable cells after 72 hrs relative to control; format: functional
[19] = Cytotoxicity against human Hs 707(A).T cells assessed as fraction of viable cells after 72 hrs relative to control; format: functional
MG-63 = assay: Cytotoxicity against human MG63 cells assessed as fraction of viable cells after 72 hrs relative to control; format: functional
[20] = Inhibition of Mek
[21] = Inhibition of PDGF
[22] = target: T1, Vascular endothelial growth factor receptor 2; remark: listed apart in the source
Description: Inhibition of VEGFR2 by cellular assay

Description for cells: Inhibition of Bcr-abl by cellular assay

SMILES: Cc1ccc(NC(=O)c2cccc(C(F)(F)F)c2)cc1N1Cc2cnc(N)nc2N(C)C1=O
EC50 [1]: > 2000 nM | EC50 [2]: > 2000 nM | EC50 [3]: > 2000 nM | EC50 (Ephrin type-A receptor 3): 2 nM | EC50 (Ephrin type-B receptor 4): 4 nM | EC50 [4]: 22 nM | EC50 [5]: 13 nM | EC50 [6]: 80 nM | EC50 [7]: 236 nM | EC50 [8]: 4 nM | EC50 [9]: 5 nM | EC50 [10]: 4 nM | EC50 [11]: 6 nM | EC50 [12]: 77 nM | EC50 (Angiopoietin-1 receptor): 200 nM | IC50 [13]: 13 nM | EC50 [14]: > 2000 nM | EC50 [15]: > 2000 nM | EC50 [16]: > 2000 nM | EC50 (Insulin receptor): > 2000 nM | EC50 [17]: > 2000 nM | EC50 (cells): 3 nM

SMILES: CC#CC(=O)Nc1ccc2ncnc(Nc3cccc(Br)c3)c2c1
Activity (IMR-90): 0.854 | Activity [18]: 1.024 | Activity (SNU1): 1.135 | Activity (SNU-5): 1.244 | Activity [19]: 1.31 | Activity (MG-63): 0.97

IC50 [20]: > 50 µM | IC50 [21]: 19 µM | EC50 [22]: 250 nM
SMILES: CCN(CC)CCCCNc1ncc2cc(-c3cc(OC)cc(OC)c3)c(NC(=O)NC(C)(C)C)nc2n1 [PD-173074]
